# Results published in US12158464B2, “Methods for modeling disease tissue using three-dimensional tissue systems” (priority 2013, dated 2024).
# What was measured:
# [1] = test system: human cardiac tissue strands (hESC, Hes2 derived cardiomyocytes); assay: Biorod drug testing: tissue beating pattern and contractile force by polymer wire deflection; assay type: cell-based; conditions: for response of human cardiac tissues to well-known drugs: summary statement
# Description: Cardiomyocytes were derived from human embryonic stem cell lines (hESC, Hes2). Embryoid bodies (EBs) were differentiated to the cardiovascular lineage and disassociated as previously described in Device 1 Methods. Before cell seeding, micro-well surface was rinsed with 5% (w/v) Pluronic Acid (Sigma P2443) and then air dried in the bio-safety cabinet. hESC derived cardiomyocytes were suspended at 200 million/ml (unless specified otherwise) in Collagen Type I based gel (3.0 mg/ml of rat tail collagen type I (BD Biosciences) neutralized by 1N NaOH and 10×M199 media as described by the manufacturer) with the supplements of […], 1% (v/v) HEPES, 10% (v/v) Matrigel (BD Biosciences), and […]. Suspended cardiomyocytes were then seeded into the cell culture channel (2.5 μl per well). After 30 min incubation at 37° C. to induce the gelation, appropriate media were added. After seeding, cells were kept in culture for 7 days to allow collagen matrix remodeling and assembly around the wires. Cardiac tissue strands were kept in culture for up to 21 days with media change every 2-3 days. Preferably, the tissue strands should be kept in culture for at least 2 weeks to allow for maturation; however there is no limitation on the maximum culture duration. Cardiac tissue strands were seeded to observe the stability and reproducibility of tissue in long term culture. After seeding, brightfield images (see FIG. 39A for an example) of the tissue strands were taken every day (n=3 per group) using optical microscope (Olympus CKX41) and the diameters of the tissue strands at four distinct locations were analyzed with imageJ (see FIG. 39B for an example). Tissue strand lengths were also analyzed with same method.
# Tissue contractile behavior tracing and measurement was carried out. POMac is auto-fluorescent at a wide range of wavelenths; therefore the wires were imaged with a fluorescence microscope under DAPI channel (e.g. 461 nm wavelength) to trace the bending movements of the wires. The POMac is auto-fluorescent at a wide range of wavelengths, including under FITC and Tritc channels. Images were taken at 25 frames per second (fps) (see FIG. 39C). Image sequences were analyzed with ImageJ software using tracking plugin. To calculate the forces originated from cardiac tissues, beam deflection formula with uniformly distributed load in the middle section was used here. […] The engineered cardiac tissues were paced at 2 Hz frequency. From this image sequence, contraction and relaxation time of beating can be estimated. […] Tissue stretching wires can be considered uniformly distributed Load, Wo (Load per force bearing length), which can be calculated with displacement of center point of wires in image sequence, and F can be calculated as well. […] Briefly, entire beam length was L. Section of wire with tissue wrapping around it was experiencing load. Here, the load was assumed to be evenly distributed throughout this section, and Wo was load per length. […] The distance between side of the tissue and a well wall is a, which was assumed equal for both sides. The deflection at center point was y.
# Drug testing was carried out.
# [2] = test system: hESC-derived CMs 3D tissues; assay type: cell-based, human
# Description: Alternatively, to measure the force generated by the 3D engineered cardiac tissues, a bioreactor consisting of a PDMS tissue chamber capable of housing 8 micotissues was employed. […] Briefly, each well of the PDMS chamber had two posts which served as anchoring points for each cardiac tissue during gel compaction. Furthermore, by tracking a post's deflection, the force of contraction a cardiac tissue generated was determined. Cardiac tissues underwent 7 days of pre-culture followed by 7 days of treatment with endothelin-1, angiotensin II or isoproterenol. After the treatment, the contractile force of each cardiac tissue was determined by video recording, one at a time, the top surface of a post for each cardiac tissue while being paced at 0.5 or 1 Hz using CellSens software (Olympus). Each video was then exported as a series of Tiff images and opened in ImageJ. […] Using the method of superposition for a cantilever beam-partial uniform deflection, a point force was calculated and then normalized to the tissues cross sectional area (assumed circular) to determine the cardiac force per area.
# [3] = test system: Hes2 hESC derived cardiomyocytes; assay type: cell-based, human; conditions: single cells dissociated at end of 7 days treatment, cardiac troponin T staining
# Description: (§1) After preculture for 7 days, biowires were randomly transferred to 6-well plates and cultured in StemPro-34 media in the absence or presence of Isoproterenol (100 nM), Angiotensin II (200 nM [17]) or Endothelin-1 (150 nM)(Sigma) for 7 days. This protocol was chosen to replicate the chronic treatment of mice as described. […] Isolated single cells were seeded on Matrigel-coated glass cover slips before cell area and calcium transient measurements were performed.
# hESC-CM biowires (Hes2) [4] = assay type: cell-based, human
# Description: After preculture for 7 days, biowires were randomly transferred to 6-well plates and cultured in StemPro-34 media in the absence or presence of Isoproterenol (100 nM), Angiotensin II (200 nM [17]) or Endothelin-1 (150 nM)(Sigma) for 7 days. This protocol was chosen to replicate the chronic treatment of mice as described. […] Isolated single cells were seeded on Matrigel-coated glass cover slips before cell area and calcium transient measurements were performed. Immunostaining and Fluorescence Microscopy. Immunostaining was performed using the following antibodies: mouse anti-cTNT (1:100, Thermo Scientific; MS-295-P1), mouse anti-α-actinin (1:200, Abcam, ab9465), anti-mouse-Alexa Fluor 488 (1:400, Invitrogen, A21202), anti-rabbit-TRITC (1:400, Invitrogen, 81-6114). DAPI was used to counterstain nuclei. Phalloidin Alexa Fluor 660 (1:1000, Invitrogen, A22285) was used to detect actin fibers. The stained cells were visualized using a fluorescence microscope (Leica CTR6000) and images captured using the Leica Application Suite software. For confocal microscopy cells were visualized using a fluorescence confocal microscope (Zeiss LSM-510). Transmission Electron Microscopy (TEM). Tissue was fixed with 4% Paraformaldehyde, 1% Glutaraldehyde in 0.1 M PBS for at least 1 hr and washed 3 times with PBS pH 7.2. Post-fixation was done with 1% Osmium Tetraoxide in 0.1 M PBS, pH 7.2 for 1 hr and dehydrated using ethanol series from 25 to 100%. Tissue was infiltrated using Epon resin and polymerized in plastic dishes at 40° C. for 48 hr. Tissue was stained with Uranyl Acetate and Lead Citrate after sectioning. Imaging was performed at Hitachi H-7000 transmission electron microscope.
# hESC-CM biowires (Hes2) [5] = assay: Chronic drug exposure of biowires: quantitative RT-PCR of fetal gene program; assay type: cell-based, human; conditions: 7 days treatment: ISO 100 nM, Et-1 150 nM, AngII 200 nM; vs untreated control
# Description: as §1
# Quantitative RT-PCR. RT-PCR was performed as previously described. Total RNA was prepared with the High Pure RNA Isolation Kit (Roche) and treated with RNase-free DNase (Roche). RNA was reverse transcribed into cDNA using random hexamers and Oligo (dT) with SuperScript VILO (Invitrogen). RT-qPCR was performed on a LightCycler 480 (Roche) using LightCycler 480 SYBR Green I Master (Roche). Expression levels were normalized to the housekeeping genes TATA box binding protein (TBP) or Glyceraldehyde 3-phosphate dehydrogenase (GAPDH).
# hESC-CM biowires (Hes2) [6] = assay: Chronic drug exposure: ELISA of soluble BNP in conditioned media; assay type: cell-based, human
# Description: as §1, with “performed. ELISA. Quantification of soluble BNP from the conditioned media was performed using commercially available ELISA kits.” for “performed.”
# [7] = test system: Hes2 hESC-derived cardiomyocyte tissue strands; conditions: Hes2 hESC-cardiomyocyte tissue strand; DI-4-ANEPPS imaging
# Description: For human cardiac tissue strands, day 20 EBs generated as described above were incubated in collagenase type I (1 mg/ml; Sigma) and DNAse (1 mg/ml, CalBiochem) in Hank's Balanced Salt Solution (NaCl, 136 mM; NaHCO3, 4.16 mM; Na3PO4, 0.34 mM; KCl, 5.36 mM; KH2PO4, 0.44 mM; dextrose, 5.55 mM; HEPES, 5 mM) for 2 hr at 37° C. EBs were centrifuged (800 r.p.m., 5 min), incubated with trypsin (0.25%, Gibco) for 5 min at 37° C. and pipetted gently to dissociate the cells. After dissociation, cells were centrifuged (1,000 r.p.m., 5 min), counted and seeded at 0.5×10^6 cells/strand of 0.5 cm in length. This ratio was maintained for generation of longer tissue strands. […]
# For optical mapping, tissue strands were incubated with a voltage sensitive dye (Di-4-ANEPPS 5 μM, Invitrogen) for 20 min at 37° C. in warm Tyrode's solution (NaCl 118 mM, KCl, 4.7 mM, CaCl2 1.25 mM, MgSO4 0.6 mM, KH2PO4 1.2 mM, NaHCO3 25 mM, glucose 6 mM; oxygenated by bubbling carbogen 95% O2, 5% CO2 for at least 20 minutes shortly before use). Dye fluorescence was recorded on a MVX-10 Olympus fluorescence microscope equipped with a high-speed CMOS camera (Ultima-L, Scimedia)^29-30. […] The fluorescence was excited using a mercury arc source (X-Cite Exacte) with green filter (Olympus U-MWIG2 filter cube). […]
# [8] = test system: endothelialized AngioChip human cardiac tissue; conditions: 10 μM perfused through built-in vasculature, within 30 min
# Description: Cardiac drug test. On day 7 of culture, the spontaneous contractions of the cardiac tissues were recorded as bright-field videos. […] After 30 min incubation, the spontaneous contractions of the cardiac tissues were recorded again as bright-field videos. The frequency of contraction was analyzed from the recorded videos with image J. DMSO was used to dissolve the drugs. The final concentration of DMSO in the culture media was diluted to less than 0.1% (v/v).
# [9] = test system: hESC-derived cardiomyocytes (Hes2 cell line); assay: Calcium transient measurements in single cardiomyocytes dissociated from tissue strands; assay type: cell-based, human
# Description: Calcium transient measurements were taken. Tissue strands were dissociated by incubation with collagenase and trypsin as described in detail above. The dissociated cardiomyocytes were plated onto growth factor free Matrigel (diluted 1:60 in RPMI media)-coated 25-mm microscope glass coverslips overnight. Cells were then incubated with 5 μM of fluo-4 acetoxymethyl ester (fluo-4 AM) in culture media for 2 hours at 37° C. Subsequently, cardiomyocytes were washed twice with dye-free medium and placed back into the incubator for 30 min. A laser scanning confocal microscope (Zeiss LSM 510) was used to measure the fluorescence intensity of fluo-4 AM. The coverslips containing the fluo-4 AM-loaded cardiomyocytes were moved onto a special chamber and tightly secured. Approximately 1.8-1.9 ml of culture medium was added into the chamber, which was placed on a temperature controlled-plate (37° C.) on the microscope. Fluo-4 was excited via an argon laser (488 nm) and emitted fluorescence was collected through a 505 nm emission filter. Changes in fluo-4 AM fluorescence intensity, which indicates transient fluctuation of cytosolic calcium concentration, were recorded in frame and line scan model. The images and fluorescence data were acquired through Zeiss software. The fluorescence data were analyzed with Origin 8.5 software. Fluorescence signals (F) were normalized to baseline fluorescence after loading fluo-4 AM. The rising phase of the signals was fitted by linear model while the decaying phase of the signals was fitted by ExpDecay with Offset model. Caffeine, Verapamil (Sigma) and Thapsigargin (Invitrogen) were directly added into the chamber that contained the cardiomyocytes during imaging at concentrations indicated in the figures.
molecule,measurement,setting,value
Cc1cccc(CCN2CCC(C(=O)c3ccc(NS(C)(=O)=O)cc3)CC2)n1 [E4301],response of human cardiac tissues to well-known drugs,[1],responded appropriately
endothelin-1 [Et-1],force of contraction,[2],significantly reduced force of contraction
same,increase in cell size,[3],100%
same,contractile apparatus (transmission electron microscopy),hESC-CM biowires (Hes2) [4],significant absence of distinct Z-disks and the lack of a defined sarcomere structure
same,ANF and BNP gene expression (fetal gene program),hESC-CM biowires (Hes2) [5],no changes in gene expression
same,BNP in the conditioned media,hESC-CM biowires (Hes2) [6]; chronic treatment,BNP can also be found in the conditioned media
same,increase in the secretion of BNP,"hESC-CM biowires (Hes2) [6]; day 2 post-treatment, media conditioned for 48 h",5 fold
same,increase of BNP in the media,"hESC-CM biowires (Hes2) [6]; day 7, media conditioned for 24 h",7 fold
"CNC[C@H](O)c1ccc(O)c(O)c1 [Epinephrine, epinephrine]",spontaneous beating frequency,[7],increasing spontaneous beating frequency
same,chronotropic response (frequency of spontaneous contraction),[8],positive chronotropic response
NC[C@H](O)c1ccc(O)c(O)c1 [Norepinephrine],beating frequency,[1]; 10 μM,significant increased beating frequency
same,response of human cardiac tissues to well-known drugs,[1],responded appropriately
"CC[C@H](C)[C@H](NC(=O)[C@H](Cc1ccc(O)cc1)NC(=O)[C@@H](NC(=O)[C@H](CCCNC(=N)N)NC(=O)[C@@H](N)CC(=O)O)C(C)C)C(=O)N[C@@H](Cc1cnc[nH]1)C(=O)N1CCC[C@H]1C(=O)N[C@@H](Cc1ccccc1)C(=O)O [AngII, angiotensin II]",force of contraction,[2],significantly reduced force of contraction
same,contractile apparatus (transmission electron microscopy),hESC-CM biowires (Hes2) [4],significant absence of distinct Z-disks and the lack of a defined sarcomere structure
C[C@H]1O[C@@H](O[C@H]2[C@@H](O)C[C@H](O[C@H]3[C@@H](O)C[C@H](O[C@H]4CC[C@@]5(C)[C@H](CC[C@@H]6[C@@H]5C[C@@H](O)[C@]5(C)[C@@H](C7=CC(=O)OC7)CC[C@]65O)C4)O[C@@H]3C)O[C@@H]2C)C[C@H](O)[C@@H]1O [digoxin],chronotropic response (frequency of spontaneous contraction),[8],negative chronotropic response
COc1ccc(CCN(C)CCCC(C#N)(c2ccc(OC)c(OC)c2)C(C)C)cc1OC (stereo not drawn) [verapamil],Ca2+ transients after blockage of L-type Ca2+ channels,[9]; cells from 6 Hz tissue strands,cessation in Ca^2+ transients
Cn1c(=O)c2c(ncn2C)n(C)c1=O [caffeine],effect of caffeine added post blockage of L-type Ca2+ channels,"[9]; cells from 6 Hz tissue strands, after verapamil or nifedipine",Ca^2+ release into the cytosol
same,Ca2+ transient amplitude intensity in response to caffeine,"[9]; electrically stimulated cells vs non-stimulated controls, caffeine 5 mM",significantly higher amplitude intensity
same,response of cytosolic Ca2+ to caffeine,"[9]; single cells from electrically stimulated tissue strands, 3 and 6 Hz conditions",inducing an increase in cytosolic Ca^2+
same,response of cytosolic Ca2+ to caffeine,[9]; single cells from non-stimulated control tissue strands,none of the hESC-cardiomyocytes in non-stimulated controls were responsive
C/C=C(/C)C(=O)O[C@H]1C(C)=C2[C@H]([C@@H]1OC(=O)CCCCCCC)[C@@](C)(OC(C)=O)C[C@H](OC(=O)CCC)[C@@]1(O)[C@H]2OC(=O)[C@@]1(C)O [thapsigargin],calcium transients after blockage of SERCA,[9]; cells from 6 Hz tissue strands,cessation of calcium transients with time
